Where “and” joins values, the source holds several entries; their conditions need not be identical. Equal values may be shown once.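 These data come from cells grown in 96-well plates and exposed to compound for 48 hours at five concentrations. At the GI50, growth is halved. TGI denotes the concentration required for complete inhibition of growth.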
Legend:
Experiment in all cases: DTP human tumour cell line panel, 48 h
NCI-H226 lung = system: NCI-H226 lung
UO-31 renal = system: UO-31 renal
U251 CNS = system: U251 CNS
HOP-62 NSCLC = system: HOP-62 NSCLC
SF-268 CNS = system: SF-268 CNS
SW-620 colon = system: SW-620 colon
NCI-H522 lung = system: NCI-H522 lung
BT-549 breast = system: BT-549 breast
OVCAR-5 ovarian = system: OVCAR-5 ovarian
HOP-92 NSCLC = system: HOP-92 NSCLC

Structure (SMILES): CCCC(=O)Oc1ccc(/C(=C(\C)c2ccc(Cl)cc2)c2ccc(OCCN(CC)CC)cc2)cc1
- GI50 (NCI-H226 lung): 8.8 µM
- TGI (NCI-H226 lung): 25 µM
- GI50 (UO-31 renal): 1.43 µM
- TGI (UO-31 renal): 3.11 µM
- GI50 (U251 CNS): 1.95 µM
- TGI (U251 CNS): 4.06 µM
- GI50 (HOP-62 NSCLC): 2.16 µM
- TGI (HOP-62 NSCLC): 4.68 µM
- GI50 (SF-268 CNS): 3.81 µM
- TGI (SF-268 CNS): 19 µM
- GI50 (SW-620 colon): 1.99 µM
- TGI (SW-620 colon): 4.35 µM
- GI50 (NCI-H522 lung): 12.9 µM
- TGI (NCI-H522 lung): 29.5 µM
- GI50 (BT-549 breast): 4.85 µM
- TGI (BT-549 breast): 18.9 µM
- GI50 (OVCAR-5 ovarian): 4.84 µM
- TGI (OVCAR-5 ovarian): 19.7 µM
- GI50 (HOP-92 NSCLC): 7.76 µM
- TGI (HOP-92 NSCLC): 23.4 µM

Structure (SMILES): CC(C)(C)OC(=O)NCCCCCCCCCn1c2c(c3ccccc3c1=O)C(=O)c1ccccc1-2
- GI50 (NCI-H226 lung): 41 µM
- TGI (NCI-H226 lung): > 100 µM
- GI50 (UO-31 renal): > 100 µM
- TGI (UO-31 renal): > 100 µM
- GI50 (U251 CNS): 22 µM
- TGI (U251 CNS): > 100 µM
- GI50 (HOP-62 NSCLC): 24.8 µM
- TGI (HOP-62 NSCLC): 71.6 µM
- GI50 (SF-268 CNS): 32.6 µM
- TGI (SF-268 CNS): > 100 µM
- GI50 (SW-620 colon): > 100 µM
- TGI (SW-620 colon): > 100 µM
- GI50 (NCI-H522 lung): 44.9 µM
- TGI (NCI-H522 lung): > 100 µM
- GI50 (BT-549 breast): 35.1 µM
- TGI (BT-549 breast): > 100 µM
- GI50 (OVCAR-5 ovarian): > 100 µM
- TGI (OVCAR-5 ovarian): > 100 µM
- GI50 (HOP-92 NSCLC): 14.6 µM
- TGI (HOP-92 NSCLC): 41.6 µM

Structure (SMILES): COc1cc(C[C@H]2COC(=O)[C@]2(O)Cc2ccc(OCc3ccccc3)c(OC)c2)ccc1OCc1ccccc1
- GI50 (NCI-H226 lung): 33.7 µM
- TGI (NCI-H226 lung): > 100 µM
- GI50 (UO-31 renal): 35.5 µM
- TGI (UO-31 renal): > 100 µM
- GI50 (U251 CNS): 23.9 µM
- TGI (U251 CNS): > 100 µM
- GI50 (HOP-62 NSCLC): > 100 µM
- TGI (HOP-62 NSCLC): > 100 µM
- GI50 (SF-268 CNS): 73.7 µM
- TGI (SF-268 CNS): > 100 µM
- GI50 (SW-620 colon): > 100 µM
- TGI (SW-620 colon): > 100 µM
- GI50 (NCI-H522 lung): 65.2 µM
- TGI (NCI-H522 lung): > 100 µM
- GI50 (BT-549 breast): 28.1 µM
- TGI (BT-549 breast): > 100 µM
- GI50 (OVCAR-5 ovarian): > 100 µM
- TGI (OVCAR-5 ovarian): > 100 µM
- GI50 (HOP-92 NSCLC): > 100 µM
- TGI (HOP-92 NSCLC): > 100 µM

Structure (SMILES): COc1ccc(C2=Nn3c(nnc3-c3ccc(F)c(Cl)c3)SC2)cc1
- GI50 (NCI-H226 lung): > 100 µM
- TGI (NCI-H226 lung): > 100 µM
- GI50 (UO-31 renal): > 100 µM
- TGI (UO-31 renal): > 100 µM
- GI50 (U251 CNS): > 100 µM
- TGI (U251 CNS): > 100 µM
- GI50 (HOP-62 NSCLC): > 100 µM
- TGI (HOP-62 NSCLC): > 100 µM
- GI50 (SF-268 CNS): > 100 µM
- TGI (SF-268 CNS): > 100 µM
- GI50 (SW-620 colon): > 100 µM
- TGI (SW-620 colon): > 100 µM
- GI50 (NCI-H522 lung): > 100 µM
- TGI (NCI-H522 lung): > 100 µM
- GI50 (BT-549 breast): > 100 µM
- TGI (BT-549 breast): > 100 µM
- GI50 (OVCAR-5 ovarian): 84.6 µM
- TGI (OVCAR-5 ovarian): > 100 µM
- GI50 (HOP-92 NSCLC): 18.1 µM
- TGI (HOP-92 NSCLC): 56.7 µM

Structure (SMILES): CCc1nc(N)nc(N)c1C#CC(C)c1ccc(-c2ccncc2)cc1Cl (centres undefined)
- GI50 (NCI-H226 lung): 0.264 µM and 0.86 µM
- TGI (NCI-H226 lung): 6.56 µM and 28.3 µM
- GI50 (UO-31 renal): 0.0227 µM and 0.073 µM
- TGI (UO-31 renal): 1.47 µM and 13.5 µM
- GI50 (U251 CNS): 0.0108 µM and 0.028 µM
- TGI (U251 CNS): 5.1 µM and 11.6 µM
- GI50 (HOP-62 NSCLC): 0.0266 µM and 0.0528 µM
- TGI (HOP-62 NSCLC): 1.92 µM and 13.9 µM
- GI50 (SF-268 CNS): 0.0287 µM and 0.0682 µM
- TGI (SF-268 CNS): 3.2 µM and 16.8 µM
- GI50 (SW-620 colon): < 0.005 µM
- TGI (SW-620 colon): 6.58 µM and 14.9 µM
- GI50 (NCI-H522 lung): 0.0477 µM and 0.0346 µM
- TGI (NCI-H522 lung): 2.97 µM and 4.06 µM
- TGI (BT-549 breast): 2.8 µM and 12.1 µM
- GI50 (OVCAR-5 ovarian): 0.115 µM and 0.133 µM
- TGI (OVCAR-5 ovarian): 6.17 µM and 18.6 µM
- GI50 (HOP-92 NSCLC): 0.109 µM and 0.547 µM
- TGI (HOP-92 NSCLC): 1.56 µM and 6.36 µM

Structure (SMILES): NCC(=O)Nc1ccc(Cl)cc1C(=O)c1ccc[nH]1
- TGI (NCI-H226 lung): > 100 µM
- TGI (UO-31 renal): > 100 µM
- TGI (U251 CNS): > 100 µM
- TGI (HOP-62 NSCLC): > 100 µM
- TGI (SF-268 CNS): > 100 µM
- TGI (SW-620 colon): > 100 µM
- TGI (NCI-H522 lung): 50.1 µM
- TGI (BT-549 breast): > 100 µM
- TGI (OVCAR-5 ovarian): > 100 µM
- TGI (HOP-92 NSCLC): > 76.5 µM

Structure (SMILES): O=C(Nc1cc(Cl)c(I)c(Cl)c1)C(F)(F)F
- TGI (NCI-H226 lung): 66.8 µM
- TGI (UO-31 renal): 73.7 µM
- TGI (U251 CNS): > 100 µM
- TGI (HOP-62 NSCLC): > 100 µM
- TGI (SF-268 CNS): > 100 µM
- TGI (SW-620 colon): > 100 µM
- TGI (NCI-H522 lung): 42.2 µM
- TGI (BT-549 breast): 63 µM
- TGI (OVCAR-5 ovarian): 83 µM
- TGI (HOP-92 NSCLC): 46.9 µM

Structure (SMILES): COc1ccc2[nH]c3c(C)c4c(c(C)c3c2c1)CN(C)C=C4
- TGI (NCI-H226 lung): 1.36 µM
- TGI (UO-31 renal): 81.1 µM
- TGI (U251 CNS): 1.45 µM
- TGI (HOP-62 NSCLC): 3.53 µM
- TGI (SF-268 CNS): 0.815 µM
- TGI (SW-620 colon): 18.3 µM
- TGI (NCI-H522 lung): 6.34 µM
- TGI (BT-549 breast): 4.41 µM
- TGI (OVCAR-5 ovarian): 47 µM
- TGI (HOP-92 NSCLC): 19.5 µM

Structure (SMILES): COc1ccc(-c2cn(C)c3c2-n2cccc2C3=O)cc1O
- GI50 (NCI-H226 lung): 6.33 µM
- TGI (NCI-H226 lung): 39.7 µM
- GI50 (UO-31 renal): 16.1 µM
- TGI (UO-31 renal): > 100 µM
- GI50 (U251 CNS): 8.61 µM
- TGI (U251 CNS): 29.8 µM
- GI50 (HOP-62 NSCLC): 5.93 µM
- TGI (HOP-62 NSCLC): 29.3 µM
- GI50 (SF-268 CNS): 11.4 µM
- TGI (SF-268 CNS): 50.5 µM
- GI50 (SW-620 colon): 6.9 µM
- TGI (SW-620 colon): > 100 µM
- GI50 (NCI-H522 lung): 10.1 µM
- TGI (NCI-H522 lung): 40.8 µM
- GI50 (BT-549 breast): 3.99 µM
- TGI (BT-549 breast): 23.2 µM
- GI50 (OVCAR-5 ovarian): 5.74 µM
- TGI (OVCAR-5 ovarian): 25.2 µM
- GI50 (HOP-92 NSCLC): 6.8 µM
- TGI (HOP-92 NSCLC): > 100 µM
